System: spontaneous melanoma miniswine model
Assay: Pre-operative PET-CT SLN mapping in spontaneous melanoma miniswine model
Type: in vivo, Sinclair miniature swine
Description: FIG. 6 depicts imaging of metastatic disease in a spontaneous melanoma miniswine model, in accordance with an embodiment of the present disclosure. ^124I-cRGDY-PEG-C dots and combined PET-optical imaging approaches can evaluate SLN mapping in a spontaneous melanoma miniswine model (Misfeldt, Vet. Immunol. Immunopathol. (1994); Oxenhandler, Am. J. Pathol. (1979); Millikan, J. Invest. Dermatol. (1974)) (Sinclair miniature swine, Sinclair Research Center). Image-guided metastatic disease detection, staging, and the assessment of differential tumor burden in SLN/s were evaluated in 4-10 kg miniswine (n=5) in conjunction with correlative histopathology. […]
FIGS. 7A-7I depict image-guided SLN Mapping in a spontaneous melanoma miniswine model using pre-operative PET imaging, in accordance with an embodiment of the present disclosure. These studies were expanded to include optical imaging using the portable ArteMIS™ fluorescence camera system, along with radiodetection using the gamma probe, for performing real-time assessments of the draining tumor lymphatics and nodal metastases. […] FIG. 7I depicts radioactivity levels of the primary tumor, SLN (in vivo, ex vivo), and a site remote from the primary tumor (i.e., background), using a handheld gamma probe. […]

2-deoxy-2-[^18F]fluoro-D-glucose [^18F-FDG]
discrimination of metastatic disease from inflammatory processes (miniswine with granulomatous inflammatory changes (n=3), PET-CT): failed to detect metastatic disease | detection of nodal metastases on PET-CT (representative miniswine, neck nodes, dynamic imaging over 1 hour): clear absence of nodal metastases

Reference: patent US12082907B2, “Systems, methods, and apparatus for multichannel imaging of fluorescent sources in real-time” (Memorial Sloan Kettering Cancer Center, priority 2013, dated 2024)
